Results as given in US10570180B2, “Anti-bacterial agents and their use in therapy” (priority 2015, dated 2020).
In brackets after ≈: the same amount, converted by molar mass. Like-named read-outs stand apart in the source and are kept apart here.

Assays:
E. faecium CTC 492 = assay: MIC assay of antibiotics with ATX-101; type: cell-based, Enterococcus faecium; settings: for MIC: Enterococcus faecium, CTC492, E. faecium CTC 492, read-out: Est MIC
Procedure: (§1) The minimum inhibitory concentration (MIC) of ATX-101 (SEQ ID NO: 1289) was determined for various gram negative and gram positive bacteria. The bacteria, Pseudomonas aeruginosa ATCC 15692, Acinetobacter baumenni ATCC 19600, Escherichia coli ATCC 25922, Pseudomonas aeruginosa TO-5A (clinical isolate), Enterococous faecium CCUG 37832, Enterococcus faecium CTC 492, Micrococcus luteus ATCC 9341 and Escherichie coli NCIMB 12210 were grown in the presence of various concentrations of ATX-101 and/or antibiotic.
(§2) ATX-101 was dissolved in Mueller-Hinton broth to 1.25 times of the desired assay concentration. Antibiotics were dissolved in Mueller-Hinton broth and Mueller-Hinton broth with ATX-101 at a concentration of 1.25 times the highest desired assay concentrations. Antibiotics were pharmaceutical grade purchased from Sigma-Aldrich.
(§3) Two-fold serial dilutions of antibiotics were made in Mueller-Hinton with different concentrations of ATX-101, and the solutions were placed in four parallel wells is Nunc 384-well micro plates (30 μl per well in Nunc 242757 microplates). A group of 8 wells with no addition of antibiotics for each ATX-101 concentration was included on each micro plate as a growth reference.
(§4) At the day of analysis, overnight TSB cultures inoculated from freeze stocks (6 ml in 50 ml tube tilted to 45-degrees angle, 200 rpm, 2.5 cm amplitude, 37° C.) were diluted in TSB until the OD800 was 0.10, and further diluted 1:40 in Mueller-Hinton broth. Each well in the 384-well assay plates was inoculated with 7.5 μl of the diluted culture, giving the same dilution of the culture in the assay cultures. The microplates were placed in plastic bags and incubated without shaking at 37° C. The optical density at 600 nm in the microwells was measured after approximately 19 hours of incubation, and the relative growth yield was calculated based on the growth in the reference groups. The MIC value was set to the highest concentration giving less than 30% growth in all 4 parallel wells within the sample groups. The microplates were further incubated for 6 hours, and optical density in the cultures was measured once more for confirmation of the estimated MIC-values.
as §2, with “The APIM peptide was” for “ATX-101 was”, “with APIM” for “with ATX-101”
as §3, with “APIM,” for “ATX-101,”, “in” for “is”, “APIM” for “ATX-101”, “as” for “as a”
as §4, with “inoculated” for “inoculated from”, “OD600” for “OD800”, “culture.” for “culture, giving the same dilution of the culture in the assay cultures.”, “yield in each well” for “yield”

[1] = test system: Staphylococcus aureus MRSA 1040s; assay: microbe, parasite or virus in culture; type: cell-based; settings: for MIC: Staphylococcus aureus, Table 6, alone, MRSA 1040s, read-out: MIC; for MIC when combined with 10 μg/ml of ATX-101: Table 6, MRSA 1040s
Procedure: as §2, §3, §4
as §2, with “The APIM peptide was” for “ATX-101 was”, “with APIM” for “with ATX-101”
as §3, with “APIM,” for “ATX-101,”, “in” for “is”, “APIM” for “ATX-101”, “as” for “as a”
as §4, with “inoculated” for “inoculated from”, “OD600” for “OD800”, “culture.” for “culture, giving the same dilution of the culture in the assay cultures.”, “yield in each well” for “yield”
In view of the anti-bacterial effect of ATX-101 on strains of MRSA, the MIC for a variety of APIM variants was determined using Staphylococcus aureus MRSA 1040s. […] A cell penetrating peptide (SEQ ID NO: 337) present in all of the APIM peptides, was used as a negative control.
Next, the effect of APIM peptides on the MIC of antibiotics was determined using Staphylococcus aureus MRSA 1040s.
The MICS for various APIM peptides were determined for various bacteria, as described above.

E. coli NCIMB 12210 = assay: MIC assay of antibiotics with ATX-101; type: cell-based, Escherichia coli; settings: Escherichia coli, NCIMB12210, E. coli NCIMB 12210, read-out: Est MIC
Procedure: as §1, §2, §3, §4
as §2, with “The APIM peptide was” for “ATX-101 was”, “with APIM” for “with ATX-101”
as §3, with “APIM,” for “ATX-101,”, “in” for “is”, “APIM” for “ATX-101”, “as” for “as a”
as §4, with “inoculated” for “inoculated from”, “OD600” for “OD800”, “culture.” for “culture, giving the same dilution of the culture in the assay cultures.”, “yield in each well” for “yield”

A. baumanii ATCC 19606 = assay: MIC assay of antibiotics with ATX-101; type: cell-based; settings: Acinetobacter baumannii, ATCC19606, A. baumanii ATCC 19606, read-out: Est MIC
Procedure: as §2, with “The APIM peptide was” for “ATX-101 was”, “with APIM” for “with ATX-101”
as §3, with “APIM,” for “ATX-101,”, “in” for “is”, “APIM” for “ATX-101”, “as” for “as a”
as §4, with “inoculated” for “inoculated from”, “OD600” for “OD800”, “culture.” for “culture, giving the same dilution of the culture in the assay cultures.”, “yield in each well” for “yield”

Structure (SMILES): CC1(C)S[C@@H]2[C@H](NC(=O)[C@H](N)c3ccccc3)C(=O)N2[C@H]1C(=O)O [Ampicillin]
- MIC (E. faecium CTC 492; APIM (ATX-101) conc. 6.5 μg/ml): 0.5 µg/mL (≈ 1.43 µM)
- MIC (E. faecium CTC 492; APIM (ATX-101) conc. 13 μg/ml): 0.5 µg/mL (≈ 1.43 µM)
- MIC (E. faecium CTC 492; APIM conc. 0 μg/ml): 1 µg/mL (≈ 2.86 µM)
- ampicillin concentration sufficient to inhibit bacterial growth (E. faecium CTC 492; combined with 6.5 μg/ml or 13 μg/ml ATX-101, FIG. 3): about 0.5 μg/ml
- ampicillin concentration required for the same level of inhibition (E. faecium CTC 492; without ATX-101, FIG. 3): 1 µg/mL

Structure (SMILES): CN[C@@H]1[C@@H](O[C@H]2O[C@H](CO)[C@@H](N)[C@H](O)[C@H]2O)OC2C[C@@H](N)[C@@H](O[C@H]3[C@H](O)[C@@H](O)[C@H](N)C[C@@H]3N)OC2[C@@H]1O (stereo partly shown) [Apramycin]
- MIC (E. faecium CTC 492; APIM (ATX-101) conc. 6.5 μg/ml): 64 µg/mL (≈ 119 µM)
- MIC (E. faecium CTC 492; APIM (ATX-101) conc. 13 μg/ml): 32 µg/mL (≈ 59.3 µM)
- MIC (E. faecium CTC 492; APIM conc. 0 μg/ml): 64 µg/mL (≈ 119 µM)

Structure (SMILES): CC[C@H]1OC(=O)[C@H](C)[C@@H](O[C@H]2C[C@@](C)(OC)[C@@H](O)[C@H](C)O2)[C@H](C)[C@@H](O[C@@H]2O[C@H](C)C[C@H](N(C)C)[C@H]2O)[C@](C)(O)C[C@@H](C)CN(C)[C@H](C)[C@@H](O)[C@]1(C)O [Azithromycin, reference compound]
- MIC [1]: > 1030 µg/mL
- MIC when combined with 10 μg/ml of ATX-101 [1]: 8 µg/mL

Structure (SMILES): O=C(N[C@H](CO)[C@H](O)c1ccc([N+](=O)[O-])cc1)C(Cl)Cl [Chloramphenicol]
- MIC (E. faecium CTC 492; APIM (ATX-101) conc. 6.5 μg/ml): 2 µg/mL (≈ 6.19 µM)
- MIC (E. faecium CTC 492; APIM (ATX-101) conc. 13 μg/ml): 1 µg/mL (≈ 3.09 µM)
- MIC (E. faecium CTC 492; APIM conc. 0 μg/ml): 2 µg/mL (≈ 6.19 µM)
- MIC (E. coli NCIMB 12210; APIM (ATX-101) conc. 2 μg/ml): 2 µg/mL (≈ 6.19 µM)
- MIC (E. coli NCIMB 12210; APIM (ATX-101) conc. 4 μg/ml): 2 µg/mL (≈ 6.19 µM)
- MIC (E. coli NCIMB 12210; APIM (ATX-101) conc. 8 μg/ml): 1 µg/mL (≈ 3.09 µM)
- MIC (E. coli NCIMB 12210; APIM conc. 0 μg/ml): 2 µg/mL (≈ 6.19 µM)

Structure (SMILES): CC[C@H]1OC(=O)[C@H](C)[C@@H](O[C@H]2C[C@@](C)(OC)[C@@H](O)[C@H](C)O2)[C@H](C)[C@@H](O[C@@H]2O[C@H](C)C[C@H](N(C)C)[C@H]2O)[C@](C)(O)C[C@@H](C)C(=O)[C@H](C)[C@@H](O)[C@]1(C)O [Erythromycin]
- MIC (E. faecium CTC 492; APIM (ATX-101) conc. 6.5 μg/ml): 4 µg/mL (≈ 5.45 µM)
- MIC (E. faecium CTC 492; APIM (ATX-101) conc. 13 μg/ml): 1 µg/mL (≈ 1.36 µM)
- MIC (E. faecium CTC 492; APIM conc. 0 μg/ml): 4 µg/mL (≈ 5.45 µM)
- MIC [1]: > 1030 µg/mL
- MIC when combined with 10 μg/ml of ATX-101 [1]: 2 µg/mL

Structure (SMILES): C[C@@H](O)[C@H]1C(=O)N2C(C(=O)O)=C(SCCN=CN)C[C@H]12 [Imipenem]
- MIC (E. faecium CTC 492; APIM (ATX-101) conc. 6.5 μg/ml): 2 µg/mL (≈ 6.68 µM)
- MIC (E. faecium CTC 492; APIM (ATX-101) conc. 13 μg/ml): 2 µg/mL (≈ 6.68 µM)
- MIC (E. faecium CTC 492; APIM conc. 0 μg/ml): 4 µg/mL (≈ 13.4 µM)
- MIC (A. baumanii ATCC 19606; APIM (ATX-101) conc. 2 μg/ml): 0.125 µg/mL (≈ 0.418 µM)
- MIC (A. baumanii ATCC 19606; APIM (ATX-101) conc. 4 μg/ml): 0.125 µg/mL (≈ 0.418 µM)
- MIC (A. baumanii ATCC 19606; APIM conc. 0 μg/ml): 0.25 µg/mL (≈ 0.835 µM)

Structure (SMILES): CC[C@@]1([C@@H]2O[C@@H]([C@H]3O[C@@](O)(CO)[C@H](C)C[C@@H]3C)C[C@@H]2C)CC[C@H]([C@]2(C)CC[C@]3(C[C@H](O)[C@@H](C)[C@@H]([C@@H](C)[C@@H](OC)[C@H](C)C(=O)O)O3)O2)O1 [Monensin]
- MIC (E. faecium CTC 492; APIM (ATX-101) conc. 6.5 μg/ml): 0.5 µg/mL (≈ 0.745 µM)
- MIC (E. faecium CTC 492; APIM (ATX-101) conc. 13 μg/ml): 0.5 µg/mL (≈ 0.745 µM)
- MIC (E. faecium CTC 492; APIM conc. 0 μg/ml): 1 µg/mL (≈ 1.49 µM)
- MIC (A. baumanii ATCC 19606; APIM (ATX-101) conc. 2 μg/ml): 64 µg/mL (≈ 95.4 µM)
- MIC (A. baumanii ATCC 19606; APIM (ATX-101) conc. 4 μg/ml): 64 µg/mL (≈ 95.4 µM)
- MIC (A. baumanii ATCC 19606; APIM (ATX-101) conc. 8 μg/ml): 32 µg/mL (≈ 47.7 µM)
- MIC (A. baumanii ATCC 19606; APIM conc. 0 μg/ml): 64 µg/mL (≈ 95.4 µM)

Structure (SMILES): CO[C@@H]1[C@@H](OC(N)=O)[C@@H](O)[C@H](Oc2ccc3c(O)c(NC(=O)c4ccc(O)c(CC=C(C)C)c4)c(=O)oc3c2C)OC1(C)C [Novobiocin]
- MIC (E. coli NCIMB 12210; APIM (ATX-101) conc. 2 μg/ml): 32 µg/mL (≈ 52.2 µM)
- MIC (E. coli NCIMB 12210; APIM (ATX-101) conc. 4 μg/ml): 8 µg/mL (≈ 13.1 µM)
- MIC (E. coli NCIMB 12210; APIM (ATX-101) conc. 8 μg/ml): 4 µg/mL (≈ 6.53 µM)
- MIC (E. coli NCIMB 12210; APIM conc. 0 μg/ml): 64 µg/mL (≈ 104 µM)
- MIC (A. baumanii ATCC 19606; APIM (ATX-101) conc. 2 μg/ml): 8 µg/mL (≈ 13.1 µM)
- MIC (A. baumanii ATCC 19606; APIM (ATX-101) conc. 4 μg/ml): 8 µg/mL (≈ 13.1 µM)
- MIC (A. baumanii ATCC 19606; APIM (ATX-101) conc. 8 μg/ml): 2 µg/mL (≈ 3.26 µM)
- MIC (A. baumanii ATCC 19606; APIM conc. 0 μg/ml): 8 µg/mL (≈ 13.1 µM)
